Laboratory results as given in the NIST ThermoML archive (doi:10.1016/j.jct.2012.12.001).

Assay: heat capacity at constant pressure per volume; xn = mol fraction of the nth substance listed
Conditions: 101 kPa, Liquid, DSC, x2 = 0.713

CCCCCCCCCCCCCCCCCC [octadecane] + N#Cc1ccccc1
Conditions	heat capacity [J/K/m3]
307.43 K	1934400
307.46 K	1934700
307.49 K	1935300
307.51 K	1940700
307.54 K	1937500
307.57 K	1936300
307.6 K	1936200
307.63 K	1932400
307.66 K	1937300
307.68 K	1942100
307.71 K	1944000
307.74 K	1939900
307.77 K	1932400
307.8 K	1938300
307.82 K	1947000
307.85 K	1949300
307.88 K	1946700
307.91 K	1938400
307.94 K	1933900
307.96 K	1951300
307.99 K	1961700
308.02 K	1944900
308.05 K	1926900
308.08 K	1941200
308.11 K	1958000
308.13 K	1970100
308.16 K	1961600
308.19 K	1937100
308.22 K	1930400
308.25 K	1946700
308.27 K	1964400
308.3 K	1971900
308.33 K	1970700
308.36 K	1959500
308.39 K	1936500
308.42 K	1912300
308.44 K	1924300
308.47 K	1951900
308.5 K	2008600
308.53 K	2043600
308.56 K	2018100
308.58 K	1941300
308.61 K	1912700
308.64 K	1927600
308.67 K	1961900
308.7 K	1999600
308.72 K	2029400
308.75 K	2032700
308.78 K	1994600
308.81 K	1952000
308.84 K	1951000
308.87 K	1967200
308.89 K	1986400
308.92 K	2016500
308.95 K	2025600
308.98 K	1992600
309 K	1977300
309.03 K	1975500
309.06 K	1984100
309.09 K	2003300
309.12 K	2020100
309.15 K	2018700
309.17 K	2001300
309.2 K	1997100
309.23 K	1999200
309.26 K	2022000
309.29 K	2056100
309.31 K	2064600
309.34 K	2035200
309.37 K	2025000
309.4 K	2039600
309.43 K	2070400
309.45 K	2095200
309.48 K	2108700
309.51 K	2150900
309.54 K	2201100
309.57 K	1939300
309.6 K	1869500
309.62 K	1848200
309.65 K	1833800
309.68 K	1826700
309.71 K	1819300
309.74 K	1817500
309.76 K	1810200
309.79 K	1806800
309.82 K	1803600
309.85 K	1800700
309.88 K	1798700
309.9 K	1794300
309.93 K	1792100
309.96 K	1792800
309.99 K	1790300
310.02 K	1787500
310.05 K	1785800
310.07 K	1787100
310.1 K	1782100
310.13 K	1784300
310.16 K	1779800
310.19 K	1779800
310.21 K	1778600
310.24 K	1778600
310.27 K	1775500
310.3 K	1773400
310.33 K	1772700
310.35 K	1774100
310.38 K	1771100
310.41 K	1773500
310.44 K	1771400
310.47 K	1770500
310.5 K	1768500
310.52 K	1769800
310.55 K	1768900
310.58 K	1766300
310.61 K	1764600
310.64 K	1764400
310.66 K	1764600
310.69 K	1763300
310.72 K	1763400
310.75 K	1765000
310.78 K	1762800
310.8 K	1762200
310.83 K	1757300
310.86 K	1761100
310.89 K	1760100
310.92 K	1760700
310.94 K	1761100
310.97 K	1760600
311 K	1759800
311.03 K	1759800
311.06 K	1758100
311.09 K	1757600
311.11 K	1758300
311.14 K	1758800
311.17 K	1757800
311.2 K	1757900
311.23 K	1756900
311.25 K	1754900
311.28 K	1754400
